According to patent US20250127805A1, “ALCOHOLIC FORMULATION WITH A MIXTURE OF ALKALOIDS, PRENOL LIPIDS AND FLAVONOIDS” (PONTIFICIA UNIVERSIDAD JAVERIANA, priority 2023, published 2025):

Test system: cancer cell line type 3 model
Assay: Circulating blasts, tumor development and survival in type 3 model
Format: in vivo
Details: type 3 cancer cell line
Excerpt: FIG. 12. Frequency circulating blasts in cancer cell line type 3 model.

With `COc1cccc2c1C(=O)c1c(O)c3c(c(O)c1C2=O)C[C@@](O)(C(=O)CO)C[C@@H]3O[C@H]1C[C@H](N)[C@H](O)[C@H](C)O1` [doxorubicin] the tumor development was “decrease in tumor development”.
